{
  "source": "ChEMBL document CHEMBL5252614",
  "about": "“Dioncophyllidine E: The first configurationally semi-stable, 7,3'-coupled naphthyldihydroisoquinoline alkaloid, from Ancistrocladus abbreviatus, with antiausterity activity against PANC-1 human pancreatic cancer cells” (2023)",
  "type_in_all_cases": "functional",
  "key": {"PANC-1 [1]": {"tested_on": "PANC-1", "assay": "Inhibition of colony formation in human PANC1 cells assessed as colony area at 40 uM incubated for 24 hrs in normal nutrient DMEM media followed by replacement with fresh media and further incubated for 10 days (reference value: 52%)", "parameters": "scale not given: the % may be the effect or the level left"}, "PANC-1 [2]": {"tested_on": "PANC-1", "assay": "Preferential cytotoxicity against human PANC-1 cells in nutrient-deprived medium"}, "PANC-1 [3]": {"tested_on": "PANC-1", "assay": "Induction of cell death in human PANC-1 cells assessed as alteration in cell morphology incubated for 24 hrs in nutrient-deprived medium by ethidium bromide/acridine orange staining based analysis", "settings": "dose 10-20 µM"}, "PANC-1 [4]": {"tested_on": "PANC-1", "assay": "Inhibition of colony formation in human PANC1 cells assessed as colony area at 10 uM incubated for 24 hrs in normal nutrient DMEM media followed by replacement with fresh media and further incubated for 10 days (reference value: 52%)", "parameters": "scale not given: the % may be the effect or the level left"}, "PANC-1 [5]": {"tested_on": "PANC-1", "assay": "Inhibition of colony formation in human PANC1 cells assessed as colony area at 20 uM incubated for 24 hrs in normal nutrient DMEM media followed by replacement with fresh media and further incubated for 10 days (reference value: 52%)", "parameters": "scale not given: the % may be the effect or the level left"}, "PANC-1 [6]": {"tested_on": "PANC-1", "assay": "Induction of cell death in human PANC-1 cells assessed as increase in cells emitting red fluorescence incubated for 24 hrs in nutrient-deprived medium by ethidium bromide/acridine orange staining based analysis", "settings": "dose 10-20 µM"}},
  "data": [
    {"smiles": "COc1cccc2cc(C)c(-c3ccc4c(c3O)C(C)=N[C@H](C)C4)c(O)c12", "values": [
      {"measurement": "Activity", "setting": "PANC-1 [1]", "value": 24, "unit": "%"},
      {"measurement": "PC50", "setting": "PANC-1 [2]", "value": 7.4, "unit": "µM"},
      {"measurement": "Activity", "setting": "PANC-1 [3]", "value": "Dose-Dependent Effect"},
      {"measurement": "Activity", "setting": "PANC-1 [4]", "value": 47, "unit": "%"},
      {"measurement": "Activity", "setting": "PANC-1 [5]", "value": 38, "unit": "%"},
      {"measurement": "Activity", "setting": "PANC-1 [6]", "value": "Dose-Dependent Effect"}
    ]}
  ]
}
